Key:
[1] = system: PEO1 cells; assay: In vitro [^18F]11 uptake in PEO1 cells; assay type: cell-based, human; conditions: 50 μg/mL CDDP, 60 min uptake
Description: (§1) The human ovarian carcinoma cell lines PEO1/4 were established and characterised as described in Wolf C. R. et al.^22 and Langdon S. P. et al^23. Briefly, PEO1/4 cells were derived from the malignant ascites of a patient with a recurrent mucinous ovarian adenocarcinoma, before (PEO1) and after (PEO4) the onset of a clinical resistance to cisplatin chemotherapy in this patient. The radiation-induced murine fibrosarcoma (RIF-1) tumour cell line was originally characterised by Twentyman P. R. et al.^20. The LNM35 tumour cells are a highly lymphogenous metastatic subline of the human large pulmonary carcinoma NCI-H460 cell line, as described in Kozaki K. et al.^24. […]
(§2) Cells were plated in triplicate in 12-well plates 2 or 3 days prior to the experiments and treated with the antineoplastic platinum-derived drug Cisplatin, 5-FU, the protein synthesis inhibitor cycloheximide (CHX) or the topoisomerase inhibitor etoposide (VP-16) (Sigma, UK) or corresponding vehicle at the indicated concentration and time. […] 260 μL of each sample were transferred in counting tubes and Fluorine-18 radioactivity was immediately determined using a Packard Cobra II gamma counter (Perkin Elmer, UK). […] BCA Protein assay (Pierce, UK) was performed for all samples and datas are normalized and expressed as CCPMA or RLU (Relative Light Unit)/mg of protein.

[2] = system: RIF-1 cells; assay: In vitro [^18F]11 uptake in RIF-1 cells; assay type: cell-based, murine
Description: as §1
as §2, with “protein. […]” for “protein.”

[3] = In vivo biodistribution studies (Example 5); design: species or system C3H/hej mice; conditions: i.v., 2-60 min
Protocol: The stability of novel compound [^18F]11 and known compound [^125I]14 in plasma and liver was measured over time following administration in mice. [^18F]11 was injected intravenously into tumor-bearing mice and its tissue distribution was measured in selected tissues at 2, 15 and 60 min after injection. [^125I]14 was injected intravenously into non-tumour bearing mice and its tissue distribution was measured at selected time points from 2 to 60 minutes after injection. Furthermore, the in vivo metabolic stability of the radiotracer was determined from plasma and liver samples and, for [^18F]11, in urine samples.
The radiation-induced murine fibrosarcoma (RIF-1) tumour cells^20 were maintained in RPMI 1640 medium (Invitrogen Ltd, Paisley, UK) supplemented with 10% fetal calf serum (BioWhittaker Europe Ltd, Verviers, Belgium), 2 mM L-glutamine, 100 U/mL penicillin, 100 μg/mL streptomycin and 0.25 μg/mL fungizone (Gibco, UK) at 37° C. in a humidified incubator with 5% CO2. All animal work was done by licensed investigators in accordance with the United Kingdom's “Guidance on the Operation of Animals (Scientific Procedures) Act 1986” (HMSO, London, United Kingdom, 1990) and in full compliance with government regulations and guidelines on the welfare of animals in experimental neoplasia^21. Tumors were established in mice by subcutaneous injection of 5×10^5 cells on the back of male C3H/hej mice (Harlan, Bicester, Oxfordshire, UK). Tumour growth was monitored every two days using electronic callipers, and tumor volume estimated using the equation (π/6)×L×W×D (L=length, W=width and D=depth). Animals were selected for biodistribution studies of [^18F]11 when the tumors reached ˜100-150 mm^3; biodistribution of [^125I]14 was done in non-tumor-bearing mice.
Mice were injected intravenously via the lateral vein with 0.08-0.13 mL of radioactivity (˜0.37 MBq of [^125I]14 or 3.7 MBq of [^18F]11) dissolved in phosphate buffered saline. At selected times after injection (2-60 min) mice were sacrificed by exsanguination via cardiac puncture under general anesthesia (isofluorane inhalation). Aliquots of heparinised blood were rapidly centrifuged (2000 g for 5 minutes) to obtain plasma. The radioactivity contained in tissues was determined by gamma-counting on a Cobra II Auto-Gamma counter (Packard Instruments, Meriden, Conn., USA) and expressed as a percentage of injected dose per gram of tissue (% ID/g). A minimum of three mice was used for each time point. All animals were treatment-naïve.

O=C1C(=O)N(Cc2cn(CC[18F])nn2)c2ccc(S(=O)(=O)N3CCC[C@H]3COc3ccc(F)cc3F)cc21 [[^18F]11, (S)-1-((1-(2-Fluoroethyl)-1H-[1,2,3]-triazol-4-yl)methyl)-5-(2(2,4-difluorophenoxymethyl)-pyrrolidine-1-sulfonyl)isatin]
[^18F]11 uptake in drug-treated cells compared to control [1]: significantly increased | increase in uptake in apoptotic cells ([2]; CDDP 100 μM 48 h vs vehicle, 1 h incubation): ~1.5 fold | [^18F]11 uptake in drug-treated cells compared to control ([2]; CDDP or CHX 10 μg/mL 24 h, 60 min uptake): significantly increased | Bone uptake ([3]; RIF-1 tumor-bearing mice): low | uptake in untreated tumors, heart and brain ([3]; RIF-1 tumor-bearing mice): low | tissue distribution and elimination ([3]; mice): distributed rapidly to tissues and was also rapidly eliminated

— US8961930B2, “Isatin derivatives for use as in vivo imaging agents” (Imperial Innovations Limited, priority 2008, dated 2015)
